Test results taken from patent US20260022143A1, “Cyclic Peptide Inhibitors of IL-23” (JANSSEN PHARMACEUTICA NV, priority 2022, published 2026).
Starred links: 1 amine or outer side, 2 acyl side, 3 side chain; linkers in the order of their positions; H or OH if unused. Positions of bridges follow the written chain, without caps; N, C: chain ends. Non-standard residues stand in square brackets, D forms with d. Residues, ends and D or L forms follow the SMILES beside them. Groups on a side chain read outwards from the residue. *: point of attachment. X48 = CCCCCCCCCCCC(=O)N[C@@H](CCC(=O)*)C(=O)N[C@H](CC(=O)O)C[N+](C)(C)C; Me3N+(CH2)2O(CH2)2O(CH2)2CO = C[N+](C)(C)CCOCCOCCC(=O)*; CH2CH2OCH2CH2OCH2CH2NMe3+ = C[N+](C)(C)CCOCCOCC*; dTrp(7-Me) = Cc1cccc2c(C[C@@H](N)C(=O)O)c[nH]c12; Trp(7-Me) = Cc1cccc2c(C[C@H](N)C(=O)O)c[nH]c12; Hexanoyl(6-NMe3+) = C[N+](C)(C)CCCCCC(=O)*; X63 = C[N+]1(C)CCC(N[*:1])(C(=O)[*:2])CC1; CH2CH2OCH2CH2NMe3+ = C[N+](C)(C)CCOCC*; γGlu = O=C(O)[C@H](CCC(=O)[*:2])N[*:1]; 2Nal = N[C@@H](Cc1ccc2ccccc2c1)C(=O)O; AEF = NCCOc1ccc(C[C@H](N)C(=O)O)cc1; PEG6 = NCCOCCOCCOCCOCCOCCOCCC(=O)O; 3Pal = N[C@@H](Cc1cccnc1)C(=O)O; Lys(Me) = CNCCCC[C@H](N)C(=O)O; X53 = C[N+]1(CCOCCOCC*)CCOCC1; NMeK = CN[C@@H](CCCCN)C(=O)O; Pen = CC(C)(S)[C@H](N)C(=O)O; Lauroyl = CCCCCCCCCCCC(=O)*; X11 = N=C(N)NCCOCCOCCC(=O)*; Thp = NC1(C(=O)O)CCOCC1; X3 = C[N+](C)(C)CCCCC*; AEEA = NCCOCCOCC(=O)O; Me2NCH2CH2 = CN(C)CC*; Sar = CNCC(=O)O

Key:
[1] = Exposed Polar Surface Area (EPSA); assay type: physicochemical; conditions: SFC on Chirex 3014 column; sample 1 mM DMSO stock; read-out: EPSA
In short: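 SFC retention on a Chirex 3014 (S)-valine/(R)-1-(α-naphthyl)ethylamine column, 35 °C, CO2 with MeOH (20 mM ammonium formate) gradient 5–60% at 20%/min, 14 MPa outlet. Retention times converted to EPSA (Å^2) via linear calibration with 8 standards; samples from 1 mM DMSO stock, run in duplicate.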

IL-23R = molecular target: T1, IL-23R (Homo sapiens, UniProt Q5VWK5); assay: IL23R Reporter Assay; assay type: cell-based; conditions: HEK293 cells containing IL-23R, IL-12RP1 and STAT-inducible firefly luciferase reporter; 10 ng/mL IL-23 (EC90); 5 h at 37° C.; read-out: IL23R Reporter Assay
T1 construct: host or cells: HEK293
T1 sequence (Q5VWK5 24-629): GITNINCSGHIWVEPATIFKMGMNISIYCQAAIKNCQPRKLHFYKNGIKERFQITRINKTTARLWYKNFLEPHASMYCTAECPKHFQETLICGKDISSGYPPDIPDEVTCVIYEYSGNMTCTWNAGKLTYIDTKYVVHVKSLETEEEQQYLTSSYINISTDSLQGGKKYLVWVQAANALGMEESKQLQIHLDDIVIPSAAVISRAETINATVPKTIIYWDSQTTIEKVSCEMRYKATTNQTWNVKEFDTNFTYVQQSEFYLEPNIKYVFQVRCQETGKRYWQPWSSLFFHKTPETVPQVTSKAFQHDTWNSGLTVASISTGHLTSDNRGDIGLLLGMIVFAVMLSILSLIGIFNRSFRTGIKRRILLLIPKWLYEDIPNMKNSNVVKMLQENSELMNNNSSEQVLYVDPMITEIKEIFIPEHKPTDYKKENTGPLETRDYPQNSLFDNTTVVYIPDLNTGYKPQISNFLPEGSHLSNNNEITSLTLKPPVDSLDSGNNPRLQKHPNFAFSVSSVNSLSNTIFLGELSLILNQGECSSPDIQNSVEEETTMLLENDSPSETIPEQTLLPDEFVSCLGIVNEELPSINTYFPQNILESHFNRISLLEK

SMILES | EPSA [1] [A^2] | IC50 (IL-23R) [nM]
CC(=O)NCCCC[C@@H]1NC(=O)[C@H](Cc2c[nH]c3c(C)cccc23)NC(=O)[C@H]([C@@H](C)O)NC(=O)[C@H](CC(N)=O)NC(=O)[C@@H](NC(=O)CCOCCOCC[N+](C)(C)C)C(C)(C)SSC(C)(C)[C@@H](C(=O)N[C@@H](Cc2ccc(OCCCCC[N+](C)(C)C)cc2)C(=O)N[C@@H](Cc2ccc3ccccc3c2)C(=O)NC2(C(=O)N[C@@H](CCCCNC(C)=O)C(=O)N[C@@H](CC(N)=O)C(=O)N[C@@H](Cc3cccnc3)C(=O)N(C)CC(N)=O)CCOCC2)NC1=O [compound 428, cPEG3aCO-Pen(3)-N-T-7MeW-K(Ac)-Pen(3)-TMAPF-2Nal-THP-K(Ac)-N-3Pya-Sar-CONH2] ({Me3N+(CH2)2O(CH2)2O(CH2)2CO}-[Pen]NT[Trp(7-Me)]K(Ac)[Pen]Y(X3)[2Nal][Thp]K(Ac)N[3Pal][Sar]-NH2; disulfide 1-6) | 161 | 3.5
CCCCCCCCCCCC(=O)N[C@@H](CCC(=O)NCCOCCOCCOCCOCCOCCOCCC(=O)NCCOCCOCC(=O)NCCCC[C@@H](C(N)=O)N(C)C(=O)[C@H](Cc1cccnc1)NC(=O)[C@H](CC(N)=O)NC(=O)[C@H](CCCCN(C)C(C)=O)NC(=O)C1(NC(=O)[C@H](Cc2ccc3ccccc3c2)NC(=O)[C@H](Cc2ccc(OCCCCC[N+](C)(C)C)cc2)NC(=O)[C@H]2NC(=O)[C@H](CCCCNC(C)=O)NC(=O)[C@H](Cc3c[nH]c4c(C)cccc34)NC(=O)[C@H]([C@@H](C)O)NC(=O)[C@H](CC(=O)N(C)C)NC(=O)[C@@H](NC(=O)CCOCCOCC[N+](C)(C)C)C(C)(C)SSC2(C)C)CCOCC1)C(=O)O [compound 360, cPEG3aCO-Pen(3)-N(N(Me)2)-T-7MeW-K(Ac)-Pen(3)-TMAPF-2Nal-THP-K(NMeac)-N-3Pya-NMeK(PEG2PEG6gEC12)-CONH2] ({Me3N+(CH2)2O(CH2)2O(CH2)2CO}-[Pen]D(NMe2)T[Trp(7-Me)]K(Ac)[Pen]Y(X3)[2Nal][Thp][Lys(Me)](Ac)N[3Pal][NMeK]([AEEA-PEG6-γGlu-Lauroyl])-NH2; disulfide 1-6) | 166 | 8.4
CC(=O)NCCCC[C@@H]1NC(=O)[C@H](Cc2c[nH]c3c(C)cccc23)NC(=O)[C@H]([C@@H](C)O)NC(=O)[C@H](CC(N)=O)NC(=O)[C@@H](NC(C)=O)C(C)(C)SSC(C)(C)[C@@H](C(=O)N[C@@H](Cc2ccc(OCCOCCOCC[N+]3(C)CCOCC3)cc2)C(=O)N[C@@H](Cc2ccc3ccccc3c2)C(=O)NC2(C(=O)N[C@@H](CCCCNC(C)=O)C(=O)N[C@@H](CC(N)=O)C(=O)N[C@@H](Cc3cccnc3)C(=O)N(C)CC(N)=O)CCOCC2)NC1=O [compound 455] (Ac-[Pen]NT[Trp(7-Me)]K(Ac)[Pen]Y(X53)[2Nal][Thp]K(Ac)N[3Pal][Sar]-NH2; disulfide 1-6) | 158 | 2.1
CC(=O)N(C)CCCC[C@@H]1NC(=O)[C@H](Cc2c[nH]c3c(C)cccc23)NC(=O)[C@H]([C@@H](C)O)NC(=O)[C@H](CC(=O)N(C)C)NC(=O)[C@@H](NC(=O)CCOCCOCCNC(=N)N)C(C)(C)SSC(C)(C)[C@@H](C(=O)N[C@@H](Cc2ccc(OCCOCCOCC[N+](C)(C)C)cc2)C(=O)N[C@@H](Cc2ccc3ccccc3c2)C(=O)NC2(C(=O)N[C@@H](CCCCN(C)C(C)=O)C(=O)N[C@@H](CC(N)=O)C(=O)N[C@@H](Cc3cccnc3)C(=O)N(C)CC(=O)N(C)C)CCOCC2)NC1=O [compound 406, cPEG3gCO-Pen(3)-N(N(Me)2)-T-7MeW-K(NMeAc)-Pen(3)-APEG3F-2Nal-THP-K(NMeAc)-N-3Pya-Sar-CON(Me)2] (X11-[Pen]D(NMe2)T[Trp(7-Me)][Lys(Me)](Ac)[Pen]Y(CH2CH2OCH2CH2OCH2CH2NMe3+)[2Nal][Thp][Lys(Me)](Ac)N[3Pal][Sar]-NMe2; disulfide 1-6) | 150 | 2.1
CC(=O)N(C)CCCC[C@@H]1NC(=O)[C@H](Cc2c[nH]c3c(C)cccc23)NC(=O)[C@H]([C@@H](C)O)NC(=O)[C@H](CC(=O)N(C)C)NC(=O)[C@@H](NC(=O)CCOCCOCC[N+](C)(C)C)C(C)(C)SSC(C)(C)[C@@H](C(=O)N[C@@H](Cc2ccc(OCCOCC[N+](C)(C)C)cc2)C(=O)N[C@@H](Cc2ccc3ccccc3c2)C(=O)NC2(C(=O)N[C@@H](CCCCN(C)C(C)=O)C(=O)N[C@@H](CC(N)=O)C(=O)N[C@@H](Cc3cccnc3)C(=O)N(C)CC(=O)N(C)C)CCOCC2)NC1=O [compound 199, cPEG3aCO-Pen(3)-N(N(Me)2)-T-7MeW-K(NMeAc)-Pen(3)-APEG2F-2Nal-THP-K(NMeAc)-N-3Pya-Sar-CON(Me)2] ({Me3N+(CH2)2O(CH2)2O(CH2)2CO}-[Pen]D(NMe2)T[Trp(7-Me)][Lys(Me)](Ac)[Pen]Y(CH2CH2OCH2CH2NMe3+)[2Nal][Thp][Lys(Me)](Ac)N[3Pal][Sar]-NMe2; disulfide 1-6) | 141 | 3
Cc1cccc2c(C[C@@H]3NC(=O)[C@H]([C@@H](C)O)NC(=O)[C@H](CC(=O)N(C)C)NC(=O)[C@@H](NC(=O)CCCCC[N+](C)(C)C)C(C)(C)SSC(C)(C)[C@@H](C(=O)N[C@@H](Cc4ccc(OCCN(C)C)cc4)C(=O)N[C@@H](Cc4ccc5ccccc5c4)C(=O)NC4(C(=O)N[C@@H](CCC(=O)N(C)C)C(=O)N[C@@H](CC(N)=O)C(=O)N[C@@H](Cc5cccnc5)C(=O)N(C)CC(=O)N(C)C)CC[N+](C)(C)CC4)NC(=O)[C@H](CCC(=O)N(C)C)NC3=O)c[nH]c12 [compound 100, 5cpaCO-Pen(3)-N(N(Me)2)-T-7MeW-Q(N(Me)2)-Pen(3)-AEF(N(Me)2)-2Nal-Pip(NMe2)-Q(N(Me)2)-N-3Pya-Sar-CON(Me)2] ({Hexanoyl(6-NMe3+)}-[Pen]D(NMe2)T[Trp(7-Me)]E(NMe2)[Pen]Y(Me2NCH2CH2)[2Nal][X63]E(NMe2)N[3Pal][Sar]-NMe2; disulfide 1-6) | 139 | 9.3

Now from value to compound:

EPSA [1] [A^2] | IC50 (IL-23R) [nM] | SMILES
165 | 3.8 | CC(=O)N(C)CCCC[C@@H]1NC(=O)[C@H](Cc2c[nH]c3c(C)cccc23)NC(=O)[C@H]([C@@H](C)O)NC(=O)[C@H](CC(=O)N(C)C)NC(=O)[C@@H](NC(=O)CCOCCOCC[N+](C)(C)C)CSSC[C@@H](C(=O)N[C@@H](Cc2ccc(OCCCCC[N+](C)(C)C)cc2)C(=O)N[C@@H](Cc2ccc3ccccc3c2)C(=O)NC2(C(=O)N[C@@H](CCCCN(C)C(C)=O)C(=O)N[C@@H](CC(N)=O)C(=O)N[C@@H](Cc3cccnc3)C(=O)N(C)CC(=O)N(C)C)CCOCC2)NC1=O [compound 483, cPEG3aCO-C(3)-N(N(Me)2)-T-7MeW-K(NMeAc)-C(3)-TMAPF-2Nal-THP-K(NMeAc)-N-3Pya-Sar-CON(Me)2] ({Me3N+(CH2)2O(CH2)2O(CH2)2CO}-CD(NMe2)T[Trp(7-Me)][Lys(Me)](Ac)CY(X3)[2Nal][Thp][Lys(Me)](Ac)N[3Pal][Sar]-NMe2; disulfide 1-6)
153 | 180 | CC(=O)N(C)CCCC[C@@H]1NC(=O)[C@H](Cc2c[nH]c3ccccc23)NC(=O)[C@H]([C@@H](C)O)NC(=O)[C@H](CC(=O)N(C)C)NC(=O)[C@@H](NC(=O)CCOCCOCC[N+](C)(C)C)C(C)(C)SSC(C)(C)[C@@H](C(=O)N[C@@H](Cc2ccc(OCCOCCOCC[N+](C)(C)C)cc2)C(=O)N[C@@H](Cc2c[nH]c3ccccc23)C(=O)NC2(C(=O)N[C@@H](CCCCN(C)C(C)=O)C(=O)N[C@@H](CC(N)=O)C(=O)N[C@H]3Cc4cnccc4N(CC(=O)N(C)C)C3=O)CCOCC2)NC1=O [compound 564, cPEG3aCO-Pen(3)-N(N(Me)2)-T-W-K(NMeAc)-Pen(3)-APEG3F-W-THP-K(NMeAc)-N-3Pya-Sar-CON(Me)2]
166 | 5.8 | CCCCCCCCCCCC(=O)N[C@@H](CCC(=O)NCCOCCOCC(=O)NCCOCCOCC(=O)NCCCC[C@@H](NC(C)=O)C(=O)N[C@@H]1C(=O)N[C@@H](CC(N)=O)C(=O)N[C@@H]([C@@H](C)O)C(=O)N[C@H](Cc2c[nH]c3c(C)cccc23)C(=O)N[C@@H](CCCCNC(C)=O)C(=O)N[C@H](C(=O)N[C@@H](Cc2ccc(OCCN)cc2)C(=O)N[C@@H](Cc2ccc3ccccc3c2)C(=O)NC2(C(=O)N[C@@H](CCCCNC(C)=O)C(=O)N[C@@H](CC(N)=O)C(=O)N[C@@H](Cc3cccnc3)C(=O)N(C)CC(N)=O)CCOCC2)C(C)(C)SSC1(C)C)C(=O)N[C@H](CC(=O)O)C[N+](C)(C)C [compound 572, MeCO-canEG2PEG2gE(c)C12-Pen(3)-N-T-7MeW-K(Ac)-Pen(3)-AEF-2Nal-THP-K(Ac)-N-3Pya-Sar-CONH2] (Ac-[dK]([AEEA-AEEA-X48])[Pen]NT[dTrp(7-Me)]K(Ac)[Pen][AEF][2Nal][Thp]K(Ac)N[3Pal][Sar]-NH2; disulfide 2-7)
